Test results taken from patent EP2272342B1, “Herbicidal compositions” (BASF SE, priority 1993, dated 1994).

Assays:
[1] = test system: Solanum/Chenopodium; assay: Small field units in a maize field, 3-way tank-mix spray: weed control (Example 4); format: in vivo, solanum nigrum and chenopodium album; details: 1500 a.i./ha; 14 days after treatment
Procedure: Small field units in a maize field, infested with echinochloa crus galli, solanum nigrum and chenopodium album are sprayed with a tank-mix suspension of dimethenamid, sulcotrione and atrazine. The stage of the weeds is "full tillering" of echinochloa and "6-8 leaves stage" for solanum and chenopodium. The lot size is 8 meters in length and 3 meters in broadth. […] 14 days after treatment the efficacy is evaluated.

[2] = test system: echinochloa crus galli; assay: as above; format: in vivo; details: 1500 a.i./ha; 14 days after treatment
From the text: Small field units in a maize field, infested with echinochloa crus galli, solanum nigrum and chenopodium album are sprayed with a tank-mix suspension of dimethenamid, sulcotrione and atrazine. The stage of the weeds is "full tillering" of echinochloa and "6-8 leaves stage" for solanum and chenopodium. The lot size is 8 meters in length and 3 meters in broadth. The application rates are 1.08 kg/ha of dimethenamid, 150 or 210 g/ha of sulcotrione and 750 g/ha of atrazine. 14 days after treatment the efficacy is evaluated.

[3] = test system: large crabgrass; assay: Field trial in corn, tankmix at early post-emergence: weed control (Example 2); format: in vivo
Procedure: A field trial is carried out employing FRONTIER® 7.5 EC and ACCENT® 75 WDG in control of large crabgrass in corn. Application is as tankmix combination at early post-emergence of the weeds (3 and 4 leaf stages). Application rates of a.i. are 1.5 and 0.75 kg/ha for dimethenamid and 37.2 and 19.2 g/ha for nicosulfuron. Combined application of 0.75 kg/ha of dimethenamid and 19.2 g/ha of nicosulfuron gave 85% control with negligible corn damage compared with 35% of nicosulfuron applied alone at 19.2 g/ha and 72% for dimethenamid at a higher rate of […]. Combined application at the higher rate of dimethenamid with 37.2 g/ha of nicosulfuron gave an even more dramatic effect with 95% control compared with 72% for dimethenamid and only 45% for nicosulfuron each alone.

[4] = test system: cyperus rotundus; assay: Field trial in sugar cane plots, tank mix by backpack sprayer: weed control (Example 5); format: in vivo
Procedure: A field trial is carried out on plots (2 x 20 m) planted with sugar cane and infested with cyperus rotundus in the first or second growing stage and sprayed with a backpack sprayer in different concentrations in a tank mix. The amount of liquid spray broth is 400 I/ha.
The application rates are 2.7 kg/ha of dimethenamid with 60 g/ha of chlorimuron or with 1.6 kg/ha of a fixed ratio mixture of chlorimuron and diuron (1 : 19) which is commercially available as FRONT®. Visual evaluation is done 30 or 60 days after treatment (DAT) in percentage of control. The expected additive effect value is calculated according to the method of Colby: […]

CCNc1nc(Cl)nc(NC(C)C)n1 [Atrazine, atrazine]
Solanum/Chenopodium control [1]: 16%
Echinochloa control [2]: 23%

COCC(C)N(C(=O)CCl)c1c(C)csc1C (centres unmarked) [Dimethenamid, 2-chloro-N-(2,4-dimethyl-3-thienyl)-N-(2-methoxy-1-methylethyl)-acetamide]
control ([3]; dimethenamid alone at a higher rate of 1.25 g/ha (so in the source)): 72%
control ([3]; dimethenamid alone, higher rate (second comparison)): 72%
Cyperus Control (DAT) ([4]; 2.25 kg a.i./ha, light to medium soil, 30 DAT): 23 (30 DAT) %
Cyperus Control (DAT) ([4]; 2.7 kg a.i./ha, heavy soil, 60 DAT): 10 (60 DAT) %
Cyperus Control (DAT) ([4]; 2.7 kg a.i./ha, light to medium soil, 30 DAT): 27 (30 DAT) %
Cyperus Control (DAT) ([4]; 2.7 kg a.i./ha, light to medium soil, 60 DAT): 19 (60 DAT) %

COc1cc(OC)nc(NC(=O)NS(=O)(=O)c2ncccc2C(=O)N(C)C)n1 [nicosulfuron]
control ([3]; nicosulfuron alone, 37.2 g/ha): 45%
control ([3]; nicosulfuron applied alone at 19.2 g/ha): 35%

chlorimuron
Cyperus Control (DAT) ([4]; 0.06 kg a.i./ha, light to medium soil, 30 DAT): 58 (30 DAT) %
